Laboratory results reported in patent US11793867B2, “Neoantigens and uses thereof” (BIONTECH US INC., priority 2017, dated 2023).

Experiments:
[1] = system: CD8+ T cell responses; assay: In vivo immunogenicity assay, longmers and shortmers sequentially (FIG. 3 regimen); set-up: species or system C57BL/6 mice; conditions: CD8 T cells induced by Alg8 vaccination
Protocol: FIG. 3 illustrates exemplary administration regimen for peptides comprising neoepitopes. The top panel depicts administering a prime dose and boost of longmer. The middle panel depicts administering a prime dose and boost of shortmer. The lower panel depicts administering a prime dose of longmer and boost of shortmer. The boost dose is administered on day 7, 14, and day 21 after the prime dose.
Peptide-specific T cells are functionally enumerated using the ELISPOT assay (BD Biosciences), which measures the release of IFNγ from T cells on a single cell basis. Cells incubated with antigen overnight (16-18 hours) at 37° C. The next day, the cell suspension was discarded, and wells were washed once with PBS, and twice with deionized water. […] Substrate (3-amino-9-ethyl-carbazole, 0.1 M Acetate buffer, H2O2) was added to all wells, and spot development monitored (approximately 10 minutes). […] The plates were analyzed on an ELISPOT reader (Cellular Technology Ltd.) with accompanying software. […]
MHC tetramers were purchased or manufactured on-site, and were used to measure peptide-specific T cell expansion in the immunogenicity assays. […] The phenotype of cells was assessed using markers such as CD44, CD62L, KLRG1, CD127, PD-1, LAG-3 and TIM-3. […] Cells were acquired on a FACS Calibur (Becton Dickinson) instrument, and were analyzed by use of Cellquest software (Becton Dickinson). […]

[2] = in combination with a NYESO-1 peptide vaccine (in addition to Montanide); cited from earlier work
[3] = in humans; cited from earlier work

| Substance | TCR avidity (EC50) [1] | patients showing induction of CD4+ and CD8+ T cell, as well as antibody responses to the peptide [2] | CD4+ and CD8+ responses [3] |
| --- | --- | --- | --- |
| AVGITYTWTRLYASVLTGSLVSKTKK [Alg8, longmer murine neoantigen peptide, H-2Kb, T3 model] | similar | – | – |
| ITYTWTRL [Alg8-shortmer] | similar | – | – |
| poly-ICLC | – | > 90% | durable CD4+ and CD8+ responses |
